Laboratory results reported in patent publication US20060127980A1, “Human excitatory amino acid transporter-2 gene promoter and uses thereof” (priority 2003, published 2006).

Tests used:
hEAAT2 protein = assay: Western blot of EAAT2 protein in PHFA; format: cell-based, human
Protocol: FIG. 5A-E. Effect of pharmacological inhibitors on hEAAT2 promoter activity, and mRNA and protein expression in PHFA following various treatment protocols. A. hEAAT2 promoter activity in PHFA, either untreated (−) or treated with EGF (30 ng/ml), in the absence (−) or presence (+) of KT5720 (5 μM), AG1478 (1 μM), PDTC (100 μM), wortmannin (WRT) (100 nM) or PD98049 (PD) (50 μM). B. hEAAT2 promoter activity in PHFA, either untreated (−) or treated with bromo-cAMP (250 μM) in the absence (−) or presence (+) of KT5720 (5 μM), AG1478 (1 μM), PDTC (100 μM), wortmannin (WRT) (100 nM) or PD98049 (PD) (50 μM). C. hEAAT2 promoter activity in PHFA, either untreated (−) or treated with TNF-α (200 U/ml), in the absence (−) or presence (+) of KT5720 (5 μM), AG1478 (1 μM), PDTC (100 μM), wortmannin (WRT) (100 nM) or PD98049 (PD) (50 μM). D. The effect of the various treatment protocols on hEAAT2 and GAPDH mRNA levels. Upper panel presents relative hEAAT2 RNA expression versus GAPDH expression relative to control untreated or treated samples based on scanning of autoradiograms. Lower panel, actual Northern blots. E. The effect of the various treatment protocols on EAAT2 and ACTIN protein levels. Upper panel presents relative EAAT2 protein expression versus ACTIN expression relative to control untreated or treated samples based on scanning of autoradiograms. Individual experiments were performed 3 times using triplicate samples and S.D. from the mean is presented.
Northern and Western Blotting Assays. Total cellular RNA was isolated by the guanidinium/phenol extraction method and Northern blotting was performed as described (Huang et al., 2001, Oncogene 20(48):7051-7063; Su et al., 2000, Oncogene 19(30):3411-3421; Su et al., 2001, Nucleic Acids Res 29(8):1661-1671). Western blotting assays were performed as described (Su et al., 1998, Proc Natl Acad Sci USA 95(24):14400-14405; Su et al., 2002, Oncogene 21(22):3592-602).

hEAAT2 promoter = hEAAT2 promoter luciferase assay of agents in PHFA (FIG. 10); format: cell-based, human; conditions: PHFA passage #3; 10 μM
Protocol: (§1) FIG. 10. Effect of various agents on hEAAT2 promoter activity on primary human fetal astrocytes (PHFA). A: ceftriaxone; B: amoxicillin; C: chloramphenicol; D: thiamphenicol; E: vancomycin; F: glycine; G: glutamate; H: DMSO; I: dibutyryl cAMP. PHFA (passage #3) were seeded at 1×10^5 cells/35-mm plate. Twenty-four h later cells were untreated (CON) or received the indicated compound at a final concentration of 10 μM. Forty-eight h later the cells were transfected with a FL pGL3/EAAT2 luciferase reporter construct (5 μg) plus a pSVβGalactosidase construct (1 μg) using the calcium phosphate precipitation method (Su et al. 2003, Proc. Natl. Acad. Sci. USA 100:1955-1960). After an additional 48 h, cell lysates were prepared and luciferase activity was determined using the Luciferase Assay System Kit (Promega, E1501) and luminescence determined using a luminometer (Turner Designs, TD20/20) (Su et al. 2003, Proc. Natl. Acad. Sci. USA 100:1955-1960). Data presented are the average of 3 independent plates±S.D. Qualitatively similar results were obtained in 2 additional experiments.
as §1, with “Identification of Agents that Modulate hEAAT2 Promoter Activity. FIGS. 10-12 show the effects” for “FIG. 10. Effect”, “in PHFA (FIG. 10), PHFA-Im (FIG. 11) and H4 glioma (FIG. 12) cells. In the studies shown in FIG. 10,” for “on primary human fetal astrocytes (PHFA). A: ceftriaxone; B: amoxicillin; C: chloramphenicol; D: thiamphenicol; E: vancomycin; F: glycine; G: glutamate; H: DMSO; I: dibutyryl cAMP.”

`CCCC(=O)Nc1ncnc2c1ncn2[C@@H]1O[C@@H]2COP(=O)(O)O[C@H]2[C@H]1OC(=O)CCC` [dbcAMP, dibutyryl cyclic AMP] was tested, and the hEAAT2 protein levels (hEAAT2 protein) was “upregulated” and the hEAAT2 promoter activity (hEAAT2 promoter) was “potent stimulators”.
